# From paper PMC6941404, “Pigmentosins from Gibellula sp. as antibiofilm agents and a new glycosylated asperfuran from Cordyceps javanica” (Beilstein Journal of Organic Chemistry, 2019)
# Like-named read-outs stand apart in the source and are kept apart here.
# Key:
# [1] = Cytotoxicity assay (MTT); assay type: cell-based
# Description: (§1) To evaluate the biological effects of compounds 1–6, various assays were carried out. The antimicrobial activity of the isolated compounds against Bacillus subtilis DSM10, Escherichia coli DSM498, Candida tenuis MUCL29892, and Mucor plumbeus MUCL49355 was determined as described by Kuephadungphan and co-workers. The nematicidal activity against Caenorhabditis elegans was investigated using a microtiter plate assay according to Helaly and co-workers, while the cytotoxicity was tested against murine fibroblast (L929) and human HeLa (KB3.1) cell lines according to Chepkirui and co-workers.
# (§2) Biological activity screening of compounds 1–6 […]
# The isolated compounds were tested for cytotoxic activity using the MTT (3 -(4,5-dimethylthiayol -2-yl)-2,5-diphenyltetrayolium bromide) method in 96 -well microtiter plates following the procedure previously described by Chepkirui et al.7 against th e cervix carcino ma cell line KB3.1 and the established mouse fibroblast cell line L929. The assay was kindly conducted by Wera Collisi, Department of Microbial Drugs, Helmholtz Centre of Infection Research, Germany. The tested cell lines were cultured in EBM -2 (Lonza) sup plemented with 10% fetal bovine serum (Gibco) under 10% CO2 at 37 °C. A 60 µL of serial dilutions from an initial stock (1 mg/mL) of the test compounds in MeOH was added to 120 µL aliquots of a cell suspension (50,000 cells/mL) in 96-well microplates.
# After incubation for five days, 20 µL of MTT in phosphate buffered saline (PBS) were added to give a final concentration of 0.5 mg/mL. The plates were further incubated for two hours. The precipitate […]
# of formazan crystals was centrifuged and the supernatant was then discarded. Each well was washed with 100 µL of PBS and 100 µL of isopropanol containing 0.4% hydrochloric acid were subsequently added in order to get the residual dissolved. The plates were gently shaken for 20 min before the absorbance at 590 nm was measured using an ELISA microplate reader (Victor). The concentration, at which the growth of cells was inhibited to 50% of the control (IC50), was obtained from the dose - response curves. Methanol was used as negative control while epothilone A and B wer e used as positive controls for L929 and KB3.1 cell lines, respectively. […]
# (§3) After incubation at 37 °C under shaking condition, the overnight cultures were adjusted to equal the turbidity of 0.5 McFarland standard using the assay medium. The assay was carried out in 96 -well tissue cultured -treated microplates (TPP®, Germany) for S. aureus and non-treated plates (Falcon®MicroTestTM, USA) for P. aeruginosa , in which 10 μ L of each compound (0.5 mg/m L) in six replicates were mixed together with 140 μ L of bacterial suspension. Methanol and CASO medium with and without 4% glucose were used as negative controls and tetracycline (100 μg/m L) as positive control. Plates were covered with a sterile adhesive porous paper (Kisker Biotech GmbH, Steinfurt, Germany) and incubated at 37 °C for 24 h.
# After incubation, ba cterial biofilms were stained with 0.1% crystal violet solution (Sigma -Aldrich) following the protocol of O’Toole .9 Then, the biofilm was subsequently quantified using a microplate reader at 550 nm. […]
# aeruginosa PA14 were further evaluated for their bacteriostatic and bactericidal activit ies. The assay was performed in the Bioscreen 100 -well Honeycomb plate according to the protocol described by Yuyama et al. 13 where the MIC values were determined. […]
# [2] = tested on: Caenorhabditis elegans; test: Nematicidal activity microwell plate assay; assay type: cell-based; conditions: 18 h, tested 100, 50, 20 and 10 μg/mL, NA = No activity
# Description: as §1, §2
# Nematicidal activity assay
# The nematicidal activity of the new compounds against C. elegans was performed by a microwell plate assay reported by Stadler et al.5 with slightly modification. The modified protocol was reported by Helaly et al.6 The studied compounds were dissolved with methanol to a concentration of […] and subsequently diluted 1:100 with sterile distilled water. […] Finally, the nematodes were counted using a Malassez counting chamber and further adjusted to obtain a concentration of 500 nematodes/mL with sterile distilled water. […] The plate was incubated at 20 °C in the dark and nematicidal activity was recorded after 18 h of incubation. The nematodes were counted under a stereo microscope. […]
# [3] = design: method as in PMID 2143181; conditions: cited from earlier work
# [4] = tested on: Candida tenuis MUCL29892; test: Antimicrobial activity, broth microdilution MIC; assay type: cell-based; conditions: Candida tenuis MUCL 29892; 48 h; NA = No activity
# Description: as §1
# (§4) Biological activity screening of compounds 1–6
# (§5) Antimicrobial activity assay
# (§6) The minimum inhibitory concentration (MIC) of compounds 1–6 was determined using the broth microdilution method according to Kuephadungphan et al.4 against B. subtilis DSM10, E. coli DSM498, C. tenuis MUCL29892 and M. plumbeus MUCL49355. Stock suspension of each bacterium and yeast (100 μL) was transferred to 100 mL of EBS medium and YM medium, respectively.
# (§7) Suspensions of B. subtilis and C. tenuis were incubated on a rotary shaker at 30 °C for 18–24 h while E. coli was grown at 37 °C for 24 h. After incubation, the suspension was adjusted to a concentration of 6.7 × 10^5 cells/mL using a hemacytometer. The spore suspension of M. plumbeus was prepared at a concentration of 6.7 × 10^5 conidia/mL using YM medium. The determination of MIC was performed in a 96-well microtiter plate. The compounds dissolved in methanol at a concentration of 4.5 mg/mL (20 μL) were transferred to the first row of the plate. Standard antibiotics including ciprofloxacin (bacteria) and nystatin (yeast and fungus), and methanol were used as positive and negative controls, respectively. Inoculum suspension (280 μL) was added to the first row containing compounds and 150 μL were added to the rest. The solutions were then serially 2-fold diluted to 8 concentrations ranging from 2.34–300 μg/mL. Plates were incubated at 30 °C on a microplate-vibrating shaker for 24 h for bacteria and 48 h for yeast and filamentous fungus. […]
# (§8) The assay was kindly conducted by Wera Collisi, Department of Microbial Drugs, Helmholtz Centre of Infection Research, Germany. The tested cell lines were cultured in EBM -2 (Lonza) sup plemented with 10% fetal bovine serum (Gibco) under 10% CO2 at 37 °C. A 60 µL of serial dilutions from an initial stock (1 mg/mL) of the test compounds in MeOH was added to 120 µL aliquots of a cell suspension (50,000 cells/mL) in 96-well microplates.
# (§9) After incubation for five days, 20 µL of MTT in phosphate buffered saline (PBS) were added to give a final concentration of 0.5 mg/mL. The plates were further incubated for two hours. The precipitate
# [5] = tested on: Mucor plumbeus MUCL49355; test: Antimicrobial activity, broth microdilution MIC; assay type: cell-based; conditions: Mucor plumbeus MUCL 49355; 48 h; NA = No activity
# Description: as §1, §4, §5, §6, §7, §8, §9
# [6] = tested on: Staphylococcus aureus DSM1104; test: Anti-biofilm activity, microtiter dish biofilm formation assay; assay type: cell-based; conditions: S. aureus DSM1104 (ATCC25923); lowest concentration preventing biofilm formation by at least 50%; 24 h; NA = No activity
# Description: (§10) The isolated compounds were also tested for their ability to interfere in the biofilm formation of Staphylococcus aureus DSM1104 and Pseudomonas aeruginosa PA14 [51]. The biofilm inhibition assay was performed in 96-well microtiter plates using the microtiter dish biofilm formation assay described by O’Toole, with minor modifications, as outlined in our recent publications. The antibiofilm activity is expressed as MIC values, which is defined as the lowest concentration of substance that prevents biofilm formation of a target microorganism by at least 50%. […]
# (§11) Anti-biofilm activity assay
# as §3, with “The determination of the ability of isolated compounds to prevent biofilm formation of S. aureus DSM1104 (ATCC25923) and P. aeruginosa PA148 was performed using the microtiter dish biofilm formation assay described by O’Toole9 with minor modification provided in our recent publications 1, 6, 10–14. The biofilm forming strains were enriched overnight in CASO medium with and without 4% glucose for S. aureus and P. aeruginosa , respectively. After” for “After”
# (§12) After incubation, ba cterial biofilms were stained with 0.1% crystal violet solution (Sigma -Aldrich) following the protocol of O’Toole .9 Then, the biofilm was subsequently quantified using a microplate reader at 550 nm. 12 In the current study, the antibiofilm activity was expr essed as MIC value which was defined as the lowest concentration of substance that prevents the biofilm formation of a target microorganism by at least 50%. […]
# [7] = tested on: Bacillus subtilis DSM10; test: Antimicrobial activity, broth microdilution MIC; assay type: cell-based; conditions: Bacillus subtilis DSM10, 24 h, range 2.34–300 μg/mL, NA = No activity
# Description: as §1, §4, §5, §6, §7, §8, §9
# [8] = tested on: Escherichia coli DSM498; test: Antimicrobial activity, broth microdilution MIC; assay type: cell-based; conditions: 24 h, NA = No activity
# Description: as §1, §4, §5, §6, §7, §8, §9
# [9] = tested on: Pseudomonas aeruginosa PA14; test: Anti-biofilm activity, microtiter dish biofilm formation assay; assay type: cell-based; conditions: lowest concentration preventing biofilm formation by at least 50%, 24 h, NA = No activity
# Description: as §10, §11
# as §3, with “The determination of the ability of isolated compounds to prevent biofilm formation of S. aureus DSM1104 (ATCC25923) and P. aeruginosa PA148 was performed using the microtiter dish biofilm formation assay described by O’Toole9 with minor modification provided in our recent publications 1, 6, 10–14. The biofilm forming strains were enriched overnight in CASO medium with and without 4% glucose for S. aureus and P. aeruginosa , respectively. After” for “After”
# as §12
compound,measurement,setting,value
"CCCC[C@H](C)[C@@H]1CC(=O)N[C@@H](Cc2ccccc2)C(=O)N[C@@H](C)C(=O)N[C@H](CC(C)C)C(=O)O1 [Beauverolide I (5), beauverolide I]",IC50 at 5 days,[1]; human,20 µg/mL
ivermectin [reference compound],Nematicidal CE,[2],7.5 µg/mL
"C/C(=C\c1csc(C)n1)[C@@H]1C[C@@H]2O[C@]2(C)CCC[C@H](C)[C@H](O)[C@@H](C)C(=O)C(C)(C)[C@@H](O)CC(=O)O1 [Epothilone B, epothilone B, reference compound]",IC50 at 5 days,"[1]; human, HeLa cell line KB3.1, MTT, five days, NA = No activity, a = Proliferation inhibition, no altered or dead cells, read-out: Cytotoxicity (IC50) KB3.1",0.00022 µg/mL
C/C=C/C=C/[C@H]1Cc2cc(O)cc(O)c2O1 [asperfuran],Antifungal activity,[3],moderately antifungal
"C[C@@H]1[C@H](O)[C@@H](C)/C=C/C=C/CC/C=C/C=C/C=C/C=C/C(O[C@H]2O[C@H](C)[C@@H](O)[C@H](N)[C@@H]2O)CC2O[C@](O)(CC(O)C(O)CCC(O)CC(O)CC(O)CC(=O)O[C@H]1C)CC(O)C2C(=O)O (some centres unmarked) [Nystatin, nystatin, reference compound]",Antimicrobial activity (MIC) CT,[4],0.52 µg/mL
same,Antimicrobial activity (MIC) MP,[5],8.33 µg/mL
"CCCC[C@H](C)[C@@H]1CC(=O)N[C@@H](Cc2ccc(O)cc2)C(=O)N[C@@H](C)C(=O)N[C@H](CC(C)C)C(=O)O1 [Beauverolide N (4), beauverolide N]",IC50 at 5 days,"[1]; human, KB3.1 cells (HeLa, cervix carcinoma cell line), HeLa cell line KB3.1, MTT, five days, NA = No activity, a = Proliferation inhibition, no altered or dead cells, read-out: Cytotoxicity (IC50) KB3.1",16 µg/mL
same,Anti-biofilm activity (MIC) SA,[6],250 µg/mL
"C/C(=C\c1csc(C)n1)[C@@H]1C[C@@H]2O[C@@H]2CCC[C@H](C)[C@H](O)[C@@H](C)C(=O)C(C)(C)[C@@H](O)CC(=O)O1 [Epothilone A, epothilone A]",IC50 at 5 days,"[1]; mouse, Murine fibroblast cell line L929, five days, NA = No activity",0.0038 µg/mL
"O=C(O)c1cn(C2CC2)c2cc(N3CCNCC3)c(F)cc2c1=O [Ciprofloxacin, ciprofloxacin, reference compound]",MIC,[7]; read-out: Antimicrobial activity (MIC) BS,0.52 µg/mL
same,MIC,[8]; read-out: Antimicrobial activity (MIC) EC,0.52 µg/mL
"CN(C)[C@@H]1C(O)=C(C(N)=O)C(=O)[C@@]2(O)C(O)=C3C(=O)c4c(O)cccc4[C@@](C)(O)[C@H]3C[C@@H]12 [Tetracycline, tetracycline, reference compound]",Anti-biofilm activity (MIC) PA,[9],1.9 µg/mL
same,Anti-biofilm activity (MIC) SA,[6],1.9 µg/mL
"CC=CC=CC1Cc2cc(OC3OC(CO)C(OC)C(O)C3O)cc(O)c2O1 (centres unmarked) [Glucoasperfuran (3), glycoasperfuran]",Antimicrobial activity (MIC) BS,[7],devoid of activity
same,Antimicrobial activity (MIC) CT,[4],devoid of activity
same,Antimicrobial activity (MIC) EC,[8],devoid of activity
same,Antimicrobial activity (MIC) MP,[5],devoid of activity
